Experimental findings from PubChem BioAssay AID602404 (Sanford-Burnham Center for Chemical Genomics, 2012) are described below.

Molecules are shown by their SMILES. pIC50: −log10 of the molar value. Values joined by “and” are separate entries in the source; they are usually repeats but may differ in a detail not shown here. Equal entries are not always repeated. Active and inactive are the calls of the source. How the calls were made is not given here. Bounds are passed on as bounds.

Sequence of Ubiquitin-conjugating enzyme E2 N (Homo sapiens) (P61088 whole entry, looked up): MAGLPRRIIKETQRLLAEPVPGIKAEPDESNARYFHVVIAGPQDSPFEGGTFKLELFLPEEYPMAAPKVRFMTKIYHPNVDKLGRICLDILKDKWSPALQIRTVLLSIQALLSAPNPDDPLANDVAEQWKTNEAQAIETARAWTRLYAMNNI

This test has as its target Ubiquitin-conjugating enzyme E2 N (Homo sapiens) (UniProt P61088). In words: inhibition of UBC13-driven polyubiquitin chain formation – biochemical, TR-FRET, set 4, SAR follow-up (AID 602404). The following applies: UBC13 polyubiquitination. On the technique in general: Time-resolved FRET reads energy transfer from a long-lived donor to a nearby acceptor.
The pIC50 is the IC50 on a negative log10 scale, so that one unit is a factor of ten. `Cc1ccc(C)c(CN2CCC(CNC(=O)C3CCCN(c4ncnc5c4nc4n5CCCCC4)C3)CC2)c1` (stereo not given): the pIC50 is 5.57.

The term IC50 denotes the midpoint of a concentration-inhibition curve. Regarding `O=C(C1CCN(c2ncnc3c2nc2n3CCCCC2)CC1)N1CCN(c2ccccn2)CC1`, the IC50 entry was “inactive”. Turning to `Cc1cc(C)cc(NC(=O)C2CCCN(c3ncnc4c3nc3n4CCCCC3)C2)c1` (stereo not given), the IC50 entry was “inactive”. Still for that read-out and setting: the same measure for `Cc1ccc(NC(=O)C2CCCN(c3ncnc4c3nc3n4CCCC3)C2)cc1Br` (stereo not given): “inactive”. With `O=C(NCC1CCN(Cc2ccc(F)cc2)CC1)C1CCCN(c2ncnc3c2nc2n3CCCCC2)C1` (stereo not given), the pIC50 is 5.54. Consider `COc1ccccc1N1CCN(CCCNC(=O)C2CCCN(c3ncnc4c3nc3n4CCCCC3)C2)CC1` (stereo not given), for which the IC50 result was “inactive”. Still for that read-out and setting: the same measure for `Cc1cc(C)cc(NC(=O)C2CCN(c3ncnc4c3nc3n4CCCCC3)CC2)c1`: > 100 µM (inactive). For the molecule `O=C(Nc1ccc(F)c(Cl)c1)C1CCN(c2ncnc3c2nc2n3CCCCC2)CC1`, the negative logarithm of the IC50 (pIC50) is 5.25. Consider `CC1CCCCN1C(=O)C1CCN(c2ncnc3c2nc2n3CCCCC2)CC1` (stereo not given), for which the IC50 is > 100 µM (inactive). The same measure, in the same setting: the same measure for `Cc1ccc(NC(=O)C2CCN(c3ncnc4c3nc3n4CCCC3)CC2)cc1Br`: “inactive”. Regarding `O=C(NCC1CCN(Cc2ccc(Cl)c(Cl)c2)CC1)C1CCCN(c2ncnc3c2nc2n3CCCCC2)C1` (stereo not given), the pIC50 is 5.39. The same measure, in the same setting: the same measure for `O=C(NCC1CCN(Cc2ccc(Cl)c(Cl)c2)CC1)C1CCCN(c2ncnc3c2nc2n3CCCC2)C1` (stereo not given): 5.24.

In the case of `Cc1ccc(NC(=O)C2CCCN(c3ncnc4c3nc3n4CCCC3)C2)cc1F` (stereo not given), the IC50 entry was “inactive”. On the same count and under the same terms, the same measure for `Cc1ccc(NC(=O)C2CCN(c3ncnc4c3nc3n4CCCCC3)CC2)cc1Br`: > 100 µM (inactive). Take `Cc1cccc(N2CCN(CCCNC(=O)C3CCCN(c4ncnc5c4nc4n5CCCCC4)C3)CC2C)c1` (stereo not given): the pIC50 was 4.72. On the same count and under the same terms, the same measure for `O=C(NCCCN1CCCCC1)C1CCN(c2ncnc3c2nc2n3CCCCC2)CC1`: 5.47. `COc1cc(Cl)c(C)cc1NC(=O)C1CCN(c2ncnc3c2nc2n3CCCCC2)CC1`: the IC50 is > 100 µM (inactive). As to `O=C(NCC1CCN(Cc2cccc(Cl)c2)CC1)C1CCCN(c2ncnc3c2nc2n3CCCC2)C1` (stereo not given), the pIC50 is 6.02. Take `O=C(NCC1CCN(Cc2cccc(Cl)c2)CC1)[C@H]1CCCN(c2ncnc3c2nc2n3CCCC2)C1`: the pIC50 was 5.58. `Cc1cc(C)cc(NC(=O)C2CCCN(c3ncnc4c3nc3n4CCCC3)C2)c1` (stereo not given): the IC50 entry is “inactive”. In the case of `O=C(NCCCN1CCN(c2ccc(F)cc2)CC1)C1CCCN(c2ncnc3c2nc2n3CCCCC2)C1` (stereo not given), the pIC50 was 5.65. In the case of `COc1ccc(NC(=O)C2CCN(c3ncnc4c3nc3n4CCCCC3)CC2)cc1Cl`, the IC50 result was “inactive”. For the molecule `O=C(NCc1cccc(Cl)c1)C1CCN(c2ncnc3c2nc2n3CCCC2)CC1`, the negative-log IC50 (pIC50) was 4.90. For `COc1cc(OC)c(NC(=O)C2CCN(c3ncnc4c3nc3n4CCCCC3)CC2)cc1Cl`, the IC50 result was “inactive”. For `O=C(C1CCN(c2ncnc3c2nc2n3CCCCC2)CC1)N1CCN(c2ccccc2)CC1`, the IC50 result is “inactive”. Still for that read-out and setting: the same measure for `O=C(NCc1cccc(Cl)c1)C1CCN(c2ncnc3c2nc2n3CCCCC2)CC1`: “inactive”; for `Cc1ccc(NC(=O)C2CCN(c3ncnc4c3nc3n4CCCCC3)CC2)cc1F`: “inactive”; for `O=C(C1CCN(c2ncnc3c2nc2n3CCCCC2)CC1)N1CCN(c2ncccn2)CC1`: “inactive”. With `O=C(NCC1CCN(Cc2ccccc2F)CC1)C1CCCN(c2ncnc3c2nc2n3CCCCC2)C1` (stereo not given), the pIC50 is 5.07. For `O=C(NCc1cccc(Cl)c1)C1CCCN(c2ncnc3c2nc2n3CCCCC2)C1` (stereo not given), the IC50 entry is “inactive”.

For `Cc1c(Cl)cccc1NC(=O)C1CCN(c2ncnc3c2nc2n3CCCCC2)CC1`, the negative-log IC50 (pIC50) was 4.93. On the same count and under the same terms, the same measure for `O=C(NCC1CCN(Cc2cccc(Cl)c2)CC1)[C@@H]1CCCN(c2ncnc3c2nc2n3CCCCC2)C1`: 5.47. For `O=C(C1CCN(c2ncnc3c2nc2n3CCCCC2)CC1)N1CCN(c2ccc(F)cc2)CC1`, the IC50 entry is “inactive”. As to `Cc1ccccc1CN1CCC(CNC(=O)C2CCCN(c3ncnc4c3nc3n4CCCCC3)C2)CC1` (stereo not given), the pIC50 was 5.45. For `O=C(Nc1ccc(CN2CCCCC2)cc1)C1CCN(c2ncnc3c2nc2n3CCCCC2)CC1`, the IC50 entry was “inactive”. On the same count and under the same terms, the same measure for `O=C(NCc1ccc(Cl)c(Cl)c1)C1CCCN(c2ncnc3c2nc2n3CCCCC2)C1` (stereo not given): > 100 µM (inactive); for `O=C(Nc1cc(F)ccc1F)C1CCN(c2ncnc3c2nc2n3CCCCC2)CC1`: “inactive”.

As to `O=C(NCc1ccc(Cl)c(Cl)c1)C1CCN(c2ncnc3c2nc2n3CCCC2)CC1`, the IC50 is > 100 µM (inactive).

Consider `Cc1cccc(NC(=O)C2CCCN(c3ncnc4c3nc3n4CCCCC3)C2)c1` (stereo not given), for which the IC50 was > 100 µM (inactive). In the case of `O=C(NCC1CCN(Cc2cccc(Cl)c2)CC1)C1CCCN(c2ncnc3c2nc2n3CCCCC2)C1` (stereo not given), the pIC50 was 6.09 and 5.95. Take `O=C(NCC1CCN(Cc2cccc(Cl)c2)CC1)[C@H]1CCCN(c2ncnc3c2nc2n3CCCCC2)C1`: the negative logarithm of the IC50 (pIC50) is 4.82. In the case of `COc1ccc(Cl)cc1NC(=O)C1CCN(c2ncnc3c2nc2n3CCCCC2)CC1`, the IC50 entry is “inactive”.

Consider `Cc1ccc(C)c(N2CCN(CCCNC(=O)C3CCCN(c4ncnc5c4nc4n5CCCCC4)C3)CC2)c1` (stereo not given), for which the negative-log IC50 (pIC50) is 5.02. `Cc1ccc(NC(=O)C2CCN(c3ncnc4c3nc3n4CCCCC3)CC2)cc1Cl`: the pIC50 is 5.40. Take `Cc1cccc(NC(=O)C2CCN(c3ncnc4c3nc3n4CCCC3)CC2)c1`: the IC50 result is “inactive”. With `O=C(NCCCN1CCN(c2ccccc2)CC1)C1CCCN(c2ncnc3c2nc2n3CCCCC2)C1` (stereo not given), the pIC50 is 5.51. For the molecule `Cc1ccc(NC(=O)C2CCCN(c3ncnc4c3nc3n4CCCCC3)C2)cc1F` (stereo not given), the IC50 result is “inactive”. With `CCC1CCCCN1CCCNC(=O)C1CCN(c2ncnc3c2nc2n3CCCCC2)CC1` (stereo not given), the pIC50 was 5.25.

For the molecule `O=C(NCC1CCN(Cc2cccc(Cl)c2)CC1)[C@@H]1CCCN(c2ncnc3c2nc2n3CCCC2)C1`, the negative logarithm of the IC50 (pIC50) is 6.11. Turning to `O=C(c1ccco1)N1CCN(C(=O)C2CCN(c3ncnc4c3nc3n4CCCCC3)CC2)CC1`, the IC50 result was “inactive”. Still for that read-out and setting: the same measure for `Cc1ccc(NC(=O)C2CCN(c3ncnc4c3nc3n4CCCC3)CC2)cc1F`: “inactive”; for `Cc1cc(C)cc(NC(=O)C2CCN(c3ncnc4c3nc3n4CCCC3)CC2)c1`: “inactive”. For `CN(CCNC(=O)C1CCN(c2ncnc3c2nc2n3CCCCC2)CC1)Cc1ccccc1`, the negative logarithm of the IC50 (pIC50) is 5.91.

As for `Cc1ccc(NC(=O)C2CCN(c3ncnc4c3nc3n4CCCCC3)CC2)c(Cl)c1`, the IC50 is > 100 µM (inactive). On to `O=C(Nc1cccc(Cl)c1)C1CCN(c2ncnc3c2nc2n3CCCCC2)CC1`, for which the pIC50 is 5.24. On to `Cc1cccc(NC(=O)C2CCCN(c3ncnc4c3nc3n4CCCC3)C2)c1` (stereo not given), for which the IC50 result was “inactive”.

For `O=C(NCc1ccc(Cl)c(Cl)c1)C1CCN(c2ncnc3c2nc2n3CCCCC2)CC1`, the IC50 was > 100 µM (inactive). As to `O=C(NCC1CCN(Cc2ccc(Cl)cc2)CC1)C1CCCN(c2ncnc3c2nc2n3CCCCC2)C1` (stereo not given), the pIC50 is 5.56. Turning to `Cc1cccc(NC(=O)C2CCN(c3ncnc4c3nc3n4CCCCC3)CC2)c1C`, the IC50 entry was “inactive”. Same read-out and setting: the same measure for `Cc1ccc(NC(=O)C2CCN(c3ncnc4c3nc3n4CCCC3)CC2)cc1C`: “inactive”; for `Cc1cccc(NC(=O)C2CCN(c3ncnc4c3nc3n4CCCCC3)CC2)c1`: “inactive”. Still for that read-out and setting: the same measure for `Cc1cc(Cl)ccc1NC(=O)C1CCN(c2ncnc3c2nc2n3CCCCC2)CC1`: “inactive”. As for `O=C(NCC1CCN(Cc2ccccc2Cl)CC1)C1CCCN(c2ncnc3c2nc2n3CCCC2)C1` (stereo not given), the pIC50 was 5.98. The same measure, in the same setting: the same measure for `CC1CCCC(C)N1CCCNC(=O)C1CCCN(c2ncnc3c2nc2n3CCCCC2)C1` (stereo not given): 5.06. On the same count and under the same terms, the same measure for `O=C(C1CCN(c2ncnc3c2nc2n3CCCCC2)CC1)N1CCN(Cc2ccccc2)CC1`: 5.52. For `O=C(NCc1ccc(Cl)c(Cl)c1)C1CCCN(c2ncnc3c2nc2n3CCCC2)C1` (stereo not given), the IC50 result is “inactive”. Still for that read-out and setting: the same measure for `O=C(NCc1cccc(Cl)c1)C1CCCN(c2ncnc3c2nc2n3CCCC2)C1` (stereo not given): > 100 µM (inactive). Consider `CCCN1CCN(C(=O)C2CCN(c3ncnc4c3nc3n4CCCCC3)CC2)CC1`, for which the negative logarithm of the IC50 (pIC50) is 5.52. As to `O=C(C1CCN(c2ncnc3c2nc2n3CCCCC2)CC1)N1CCOCC1`, the IC50 result was “inactive”. As for `CC1CC(C)CN(C(=O)C2CCN(c3ncnc4c3nc3n4CCCCC3)CC2)C1` (stereo not given), the IC50 entry is “inactive”. As for `O=C(NCC1CCN(Cc2ccccc2Cl)CC1)C1CCCN(c2ncnc3c2nc2n3CCCCC2)C1` (stereo not given), the negative-log IC50 (pIC50) was 5.64. For `Cc1ccc(NC(=O)C2CCCN(c3ncnc4c3nc3n4CCCC3)C2)cc1C` (stereo not given), the IC50 entry is “inactive”.

For the molecule `O=C(NCC1CCN(Cc2ccc(Cl)cc2)CC1)C1CCCN(c2ncnc3c2nc2n3CCCC2)C1` (stereo not given), the pIC50 is 5.17.

`Cc1ccc(NC(=O)C2CCCN(c3ncnc4c3nc3n4CCCCC3)C2)cc1Br` (stereo not given): the IC50 is > 100 µM (inactive). `O=C(C1CCN(c2ncnc3c2nc2n3CCCCC2)CC1)N1CCC(Cc2ccccc2)CC1`: the negative logarithm of the IC50 (pIC50) was 4.85.
